In patent US9150577B2, “Heterocyclic compounds containing an indole core” (Boehringer Ingelheim International GmbH, priority 2009, dated 2015):

Target: Human RSK2 (Homo sapiens (Human), UniProt P51812)
Assay: Human RSK2 assay (Kinase Glo Plus, residual ATP);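 also: recombinant human RSK2 phosphorylating a substrate peptide, 90 min at 28 °C, leftover ATP read by luminescence, RLU scaled between no-kinase background and uninhibited kinase controls, 4-parameter fit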
Type: biochemical

Chain of Human RSK2 (P51812 whole entry): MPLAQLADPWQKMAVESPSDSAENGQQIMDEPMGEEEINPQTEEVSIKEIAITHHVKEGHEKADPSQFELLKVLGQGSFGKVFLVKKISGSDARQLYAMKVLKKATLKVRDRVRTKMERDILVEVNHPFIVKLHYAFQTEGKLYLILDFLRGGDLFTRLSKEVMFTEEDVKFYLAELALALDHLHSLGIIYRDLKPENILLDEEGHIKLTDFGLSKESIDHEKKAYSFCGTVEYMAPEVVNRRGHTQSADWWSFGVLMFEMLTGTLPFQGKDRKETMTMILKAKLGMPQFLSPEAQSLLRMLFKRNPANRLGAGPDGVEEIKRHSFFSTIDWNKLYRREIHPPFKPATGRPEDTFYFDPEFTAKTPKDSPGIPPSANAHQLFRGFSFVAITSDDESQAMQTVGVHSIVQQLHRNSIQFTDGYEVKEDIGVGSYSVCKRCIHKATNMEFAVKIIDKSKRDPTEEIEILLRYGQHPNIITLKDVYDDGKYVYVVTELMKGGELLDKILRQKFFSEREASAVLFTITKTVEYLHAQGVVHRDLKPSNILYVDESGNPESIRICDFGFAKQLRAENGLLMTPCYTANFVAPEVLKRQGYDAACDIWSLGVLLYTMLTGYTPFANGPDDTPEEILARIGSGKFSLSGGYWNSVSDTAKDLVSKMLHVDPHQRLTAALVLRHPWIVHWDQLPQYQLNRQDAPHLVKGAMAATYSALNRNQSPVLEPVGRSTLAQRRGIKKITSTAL

SMILES	IC50
O=C(Nc1nc2cc(Cl)ccc2[nH]1)c1ccc2cc3n(c2c1)CCCNC3=O [Example 47, N-(5-chloro-1H-benzimidazol-2-yl)-1-oxo-2,3,4,5-tetrahydro-1H-[1,4]diazepino[1,2-a]indole-8-carboxamide]	8 nM
Cc1noc(NC(=O)c2ccc3cc4n(c3c2)CCCNC4=O)c1Cl [Example 194, N-(4-chloro-3-methyl-1,2-oxazol-5-yl)-1-oxo-2,3,4,5-tetrahydro-1H-[1,4]diazepino[1,2-a]indole-8-carboxamide]	3300 nM
N#Cc1ccc(NC(=O)c2ccc3cc4n(c3c2)CCCNC4=O)cc1 [Example 185, N-(4-cyanophenyl)-1-oxo-2,3,4,5-tetrahydro-1H-[1,4]diazepino[1,2-a]indole-8-carboxamide]	106 nM
CS(=O)(=O)c1ccc2c(c1)nc(NC(=O)c1ccc3cc4n(c3c1)CC1(CCNCC1)CNC4=O)n2CC(F)(F)F [Example 239, N-[5-(methylsulfonyl)-1-(2,2,2-trifluoroethyl)-1H-benzimidazol-2-yl]-1-oxo-2,3-dihydro-1H-spiro[1,4-diazepino[1,2-a]indole-4,4′-piperidine]-8-carboxamide]	51 nM
Cc1cc(NC(=O)c2ccc3cc4n(c3c2)[C@@H](C)[C@H](C)CNC4=O)no1 (relative stereo) [Example 169, Trans-4,5-dimethyl-N-(5-methyl-1,2-oxazol-3-yl)-1-oxo-2,3,4,5-tetrahydro-1H-[1,4]diazepino[1,2-a]indole-8-carboxamide]	570 nM
CS(=O)(=O)c1ccc2c(c1)nc(NC(=O)c1ccc3cc4n(c3c1)CCCNC4=O)n2CC(F)(F)F [Example 118, N-[5-(methylsulfonyl)-1-(2,2,2-trifluoroethyl)-1H-benzimidazol-2-yl]-1-oxo-2,3,4,5-tetrahydro-1H-[1,4]diazepino[1,2-a]indole-8-carboxamide]	18 nM
Cn1cc(NC(=O)c2ccc3cc4n(c3c2)CCCNC4=O)nc1C(=O)NC1CCCC1 [Example 232, N-[2-(cyclopentylcarbamoyl)-1-methyl-1H-imidazol-4-yl]-1-oxo-2,3,4,5-tetrahydro-1H-[1,4]diazepino[1,2-a]indole-8-carboxamide]	9 nM
O=C(Nc1cccnc1)c1ccc2cc3n(c2c1)CC1(CCC1)CNC3=O [Example 153, 1′-oxo-N-(pyridin-3-yl)-2′,3′-dihydro-1′H-spiro[cyclobutane-1,4′-[1,4]diazepino[1,2-a]indole]-8′-carboxamide]	3300 nM
CC(C)(CO)c1cc(NC(=O)c2ccc3cc4n(c3c2)CCCNC4=O)on1 [Example 208, N-[3-(1-hydroxy-2-methylpropan-2-yl)-1,2-oxazol-5-yl]-1-oxo-2,3,4,5-tetrahydro-1H-[1,4]diazepino[1,2-a]indole-8-carboxamide]	96 nM
O=C(Nc1nc2cc(F)ccc2[nH]1)c1ccc2cc3n(c2c1)CCCNC3=O [Example 51, N-(5-fluoro-1H-benzimidazol-2-yl)-1-oxo-2,3,4,5-tetrahydro-1H-[1,4]diazepino[1,2-a]indole-8-carboxamide]	5.2 nM
CC(C)c1ccc2[nH]c(NC(=O)c3ccc4cc5n(c4c3)CCCNC5=O)nc2c1 [Example 42, 1-oxo-N-[5-(propan-2-yl)-1H-benzimidazol-2-yl]-2,3,4,5-tetrahydro-1H-[1,4]diazepino[1,2-a]indole-8-carboxamide]	6.2 nM
CN(C)c1cccc(Cn2cc(NC(=O)c3ccc4cc5n(c4c3)CCCNC5=O)cn2)c1 [Example 120, N-{1-[3-(dimethylamino)benzyl]-1H-pyrazol-4-yl}-1-oxo-2,3,4,5-tetrahydro-1H-[1,4]diazepino[1,2-a]indole-8-carboxamide]	3.8 nM
Cc1cc(NC(=O)c2ccc3cc4n(c3c2)[C@@H](C)[C@H](C)NC4=O)no1 (relative stereo) [Example 168, Trans-3,4-dimethyl-N-(5-methyl-1,2-oxazol-3-yl)-1-oxo-1,2,3,4-tetrahydropyrazino[1,2-a]indole-7-carboxamide]	160 nM
O=C(Nc1nc2cc(Cl)cc(CN3CCOCC3)c2[nH]1)c1ccc2cc3n(c2c1)CCCNC3=O [Example 46, N-[5-chloro-7-(morpholin-4-ylmethyl)-1H-benzimidazol-2-yl]-1-oxo-2,3,4,5-tetrahydro-1H-[1,4]diazepino[1,2-a]indole-8-carboxamide]	8.7 nM
CN(C)CCCn1cc(NC(=O)c2ccc3cc4n(c3c2)CCCNC4=O)cn1 [Example 36, N-{1-[3-(dimethylamino)propyl]-1H-pyrazol-4-yl}-1-oxo-2,3,4,5-tetrahydro-1H-[1,4]diazepino[1,2-a]indole-8-carboxamide]	84 nM
O=C(Nc1cnn(C2CCOCC2)c1)c1ccc2cc3n(c2c1)CCCNC3=O [Example 27, 1-oxo-N-[1-(tetrahydro-2H-pyran-4-yl)-1H-pyrazol-4-yl]-2,3,4,5-tetrahydro-1H-[1,4]diazepino[1,2-a]indole-8-carboxamide]	46 nM
CC(C)(C)c1cc(NC(=O)c2ccc3cc4n(c3c2)CCCNC4=O)on1 [Example 195, N-(3-tert-butyl-1,2-oxazol-5-yl)-1-oxo-2,3,4,5-tetrahydro-1H-[1,4]diazepino[1,2-a]indole-8-carboxamide]	44 nM
N#Cc1ccc2[nH]c(NC(=O)c3ccc4cc5n(c4c3)CCCNC5=O)nc2c1 [Example 41, N-(5-cyano-1H-benzimidazol-2-yl)-1-oxo-2,3,4,5-tetrahydro-1H-[1,4]diazepino[1,2-a]indole-8-carboxamide]	4.9 nM
O=C(Nc1cc(C2CCCCC2)no1)c1ccc2cc3n(c2c1)CCCNC3=O [Example 209, N-(3-cyclohexyl-1,2-oxazol-5-yl)-1-oxo-2,3,4,5-tetrahydro-1H-[1,4]diazepino[1,2-a]indole-8-carboxamide]	39 nM
Cc1cc(C)cc(Cn2cc(NC(=O)c3ccc4cc5n(c4c3)CCCNC5=O)cn2)c1 [Example 28, N-[1-(3,5-dimethylbenzyl)-1H-pyrazol-4-yl]-1-oxo-2,3,4,5-tetrahydro-1H-[1,4]diazepino[1,2-a]indole-8-carboxamide]	1.9 nM

Now from value to compound:

IC50	SMILES
0.7 nM	C[C@@H]1CNC(=O)c2cc3ccc(C(=O)Nc4nc5ccccc5n4CCCN(C)C)cc3n21 [Example 129, (4R)-N-{1-[3-(dimethylamino)propyl]-1H-benzimidazol-2-yl}-4-methyl-1-oxo-1,2,3,4-tetrahydropyrazino[1,2-a]indole-7-carboxamide]
145 nM	CC1CNC(=O)c2cc3ccc(C(=O)Nc4cn[nH]c4)cc3n2C1 (stereo not shown) [Example 17, 4-methyl-1-oxo-N-(1H-pyrazol-4-yl)-2,3,4,5-tetrahydro-1H-[1,4]diazepino[1,2-a]indole-8-carboxamide]
1.9 nM	C[C@H]1NC(=O)c2cc3ccc(C(=O)Nc4cnn(Cc5ccccc5)c4)cc3n2[C@H]1C (relative stereo) [Example 29, N-(1-benzyl-1H-pyrazol-4-yl)-cis-3,4-dimethyl-1-oxo-1,2,3,4-tetrahydropyrazino[1,2-a]indole-7-carboxamide]
21 nM	CC(C)n1c(NC(=O)c2ccc3cc4n(c3c2)[C@@H](C)CNC4=O)nc2ccccc21 [Example 69, (4S)-4-methyl-1-oxo-N-[1-(propan-2-yl)-1H-benzimidazol-2-yl]-1,2,3,4-tetrahydropyrazino[1,2-a]indole-7-carboxamide]
20 nM	Cn1c(NC(=O)c2ccc3cc4n(c3c2)CC(C)(C)CNC4=O)nc2ccccc21 [Example 60, 4,4-dimethyl-N-(1-methyl-1H-benzimidazol-2-yl)-1-oxo-2,3,4,5-tetrahydro-1H-[1,4]diazepino[1,2-a]indole-8-carboxamide]
26 nM	Cn1c(NC(=O)c2ccc3cc4n(c3c2)CCCNC4=O)nc2cc(Cl)ccc21 [Example 49, N-(5-chloro-1-methyl-1H-benzimidazol-2-yl)-1-oxo-2,3,4,5-tetrahydro-1H-[1,4]diazepino[1,2-a]indole-8-carboxamide]
7000 nM	N#Cc1ccccc1NC(=O)c1ccc2cc3n(c2c1)CCCNC3=O [Example 217, N-(2-cyanophenyl)-1-oxo-2,3,4,5-tetrahydro-1H-[1,4]diazepino[1,2-a]indole-8-carboxamide]
7.6 nM	CC1CNC(=O)c2cc3ccc(C(=O)Nc4cnn(Cc5ccccc5)c4)cc3n2C1 (stereo not shown) [Example 135, N-(1-benzyl-1H-pyrazol-4-yl)-4-methyl-1-oxo-2,3,4,5-tetrahydro-1H-[1,4]diazepino[1,2-a]indole-8-carboxamide]
5.9 nM	CC(C)(O)Cn1c(NC(=O)c2ccc3cc4n(c3c2)CC(C)(C)CNC4=O)nc2ccccc21 [Example 86, N-[1-(2-hydroxy-2-methylpropyl)-1H-benzimidazol-2-yl]-4,4-dimethyl-1-oxo-2,3,4,5-tetrahydro-1H-[1,4]diazepino[1,2-a]indole-8-carboxamide]
0.42 nM	C[C@@H]1NC(=O)c2cc3ccc(C(=O)Nc4cnn(Cc5ccccc5)c4)cc3n2[C@@H]1C [Example 140, (3S,4R)-N-(1-benzyl-1H-pyrazol-4-yl)-3,4-dimethyl-1-oxo-1,2,3,4-tetrahydropyrazino[1,2-a]indole-7-carboxamide]
11 nM	CN(C)CCCn1c(NC(=O)c2ccc3cc4n(c3c2)CC2(CCC2)CNC4=O)nc2ccccc21 [Example 97, N-{1-[3-(dimethylamino)propyl]-1H-benzimidazol-2-yl}-1′-oxo-2′,3′-dihydro-1′H-spiro[cyclobutane-1,4′-[1,4]diazepino[1,2-a]indole]-8′-carboxamide]
2.2 nM	CC1CNC(=O)c2cc3ccc(C(=O)Nc4nc5ccccc5n4C)cc3n21 (stereo not shown) [Example 61, 4-methyl-N-(1-methyl-1H-benzimidazol-2-yl)-1-oxo-1,2,3,4-tetrahydropyrazino[1,2-a]indole-7-carboxamide]
11 nM	CC1CCNC(=O)c2cc3ccc(C(=O)Nc4ccccc4C(N)=O)cc3n21 (stereo not shown) [Example 222, N-(2-carbamoylphenyl)-5-methyl-1-oxo-2,3,4,5-tetrahydro-1H-[1,4]diazepino[1,2-a]indole-8-carboxamide]
8.2 nM	CC1CNC(=O)c2cc3ccc(C(=O)Nc4nc5ccccc5n4C)cc3n2C1 (stereo not shown) [Example 62, 4-methyl-N-(1-methyl-1H-benzimidazol-2-yl)-1-oxo-2,3,4,5-tetrahydro-1H-[1,4]diazepino[1,2-a]indole-8-carboxamide]
